Measured values as given in patent publication US5539123A, “Low molecular weight thiocarbamates as inhibitors of elastase, uses and method of synthesis” (University of Kentucky Research Foundation, priority 1994, dated 1996).

Legend:
Human Leucocyte Elastase = molecular target: T1, Human Leucocyte Elastase (Homo sapiens, UniProt P08246); assay: Inactivation of Human Leucocyte Elastase (HLE-catalyzed hydrolysis of N-Methoxysuccinyl-L-Ala-L-Ala-L-Pro-L-Val-p-nitroanilide); assay type: biochemical; details: for times more potent than PC1: compared with PC1, kobs/I=3.3×10^4 M^-1 s^-1; for kinact/KI: second order rate constant, pH 7.5, 25° C., read-out: kobs/I
T1 construct: Human leucocyte elastase from human sputum was purchased from elastin corporation; purchased elastin corporation; host or cells: human sputum
T1 sequence (P08246 30-247 limits assumed): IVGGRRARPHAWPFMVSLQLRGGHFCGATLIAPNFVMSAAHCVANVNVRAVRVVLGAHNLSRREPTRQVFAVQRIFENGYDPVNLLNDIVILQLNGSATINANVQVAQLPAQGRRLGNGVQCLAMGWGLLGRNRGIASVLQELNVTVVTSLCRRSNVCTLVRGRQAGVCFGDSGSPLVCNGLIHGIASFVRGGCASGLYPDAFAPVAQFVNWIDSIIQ
Protocol: Therefore, second order rate constants (kobs /I, M^-1 s^-1), (I=concentration inhibitor molar) shown in Formula 1, were determined by following the inactivation of the enzyme for 2 hours as described in the experimental section. […] The results are plotted as % of relative remaining activity vs time which is the absolute remaining activity in the presence of inhibitor divided by the absolute remaining activity of the free enzyme in absence of inhibitor for the same time interval.
In such a case a semilog plot of the relative remaining activity (A/Ao) vs time would describe a curve approaching the fractional activity (F) at longer times whereas a semilog plot of (A/Ao-F)/(1-F) vs time will be linear with a slope equal to the kobs, the pseudofirst order rate constant (equation 2).
The inactivation of HLE enzyme appears to involve the chemical modification of one residue on the enzyme and the pseudofirst order rate constant kobs divided by the concentration of the inhibitor (I) can be used as a measure of the inhibitory activity of the compounds (equation 3).
Human leucocyte elastase from human sputum was purchased from elastin corporation. Hepes, 4-(2-hydroxyethyl)-1-piperazineethanesulfonic acid, was purchased from Aldrich Chemical Co. (Milwaukee, Wis.). Substrate N-Methoxysuccinyl-L-Ala-L-Ala-L-Pro-L-Val-p-nitroanilide was purchased from Sigma Chemicals. Absorbance was measured with a VARIAN CARY-2200 spectrophotometer at 410 nm.
5 μl of acetate buffer (0.05M Sodium Acetate adjusted with 6N HCl to ph=5.5) is added to the reference cuvette, and the cuvette is shaken for 15 seconds to mix the solution. 5 μl of HLE 3.7×10^-5 M in acetate buffer is added to the sample cuvette and the cuvette is shaken for 15 seconds. Both cuvettes were placed in the jacketed cuvette holders of the spectrophotometer and incubated at 25° C. for a fixed time interval up to 2 hours (Incubation periods of 3, 4, 5, 7, 10, 15, 20, 30, 45, 60, 90 and 120 minutes were used).
Shortly before the incubation period ends, the cuvettes are balanced at 410 nm. […] The cuvettes are shaken for 15 seconds and the absorbance is recorded at 410 nm at 1 min, 2 min and 3 min after addition of substrate. A control in which 50 μl of dimethyl sulfoxide used to dissolve the inhibitor is added in its place, is done in the same manner as above for each incubation period.
Absorbance of sample is the absolute remaining activity of HLE (A), and absorbance of control is the total activity of HLE (Ao).
% Relative Remaining Activity=(A/Ao)×100
The % relative remaining activity of the HLE for each inhibitor is plotted against the time of incubation and from the slope of the semilog plot the kobs is determined.
The equation that describes this model is:
A/Ao=(1-F)e^-Kobst +F (equation 1)
Rearranging results in a linear relationship
Ln ((A/Ao)-F/1-F)=-kobs t (equation 2)
A semilog plot results in a straight line with slope=kobs, the pseudofirst order rate constant ksec =kobs /I (equation 3)
The ksec is the second order independent rate constant that is used to compare the inhibitory activity of the compounds against HLE.

[1] = Stability in excess of methanol with normal phase HLPC/HPLC; assay type: physicochemical
Protocol: The flow was maintained at 1 ml/min, and a KRATOS variable UVdetector at 265 nm was used. Two separate experiments were conducted under the above conditions in which the stability of (1E) was [drawing 16] monitored in excess of methanol.
The above two experiments indicate that (1E) is consumed at the same rate as the thiol tetrazole (D) is produced. The thiol tetrazole (D) is exclusively produced from the degradation of the thiocarbamate with methanol. In other words (1E) reacts with methanol to give thiol tetrazole (D) and most probably N-n-butyl, methylcarbamate which cannot be detected under the above conditions.

[2] = inactivation followed for 2 hours

| SMILES | inhibition of HLE (Human Leucocyte Elastase) | kinact/KI (Human Leucocyte Elastase; [2]) [M⁻¹ s⁻¹] | other results |
| --- | --- | --- | --- |
| CCCCN [Compound 1A, n-butylamine] | None of the corresponding amines (1A, 2A, 3A, 4A, 5A and 6A) nor 1-phenyl-1H-tetrazole-5-thiol (D) inhibited HLE |  |  |
| CCCCNC(=O)Sc1nnnn1-c1ccccc1 [Compound 1E, N-butyl, 1-phenyl-1H-tetrazole-5-thiocarbamate] |  | 210000 | times more potent than PC1 (Human Leucocyte Elastase): 10 times; stability [1]: fairly stable; half-life ([1]; calculated from the pseudofirst order rate constants): 17 days |
| C=CCN [Compound 2A] | None of the corresponding amines (1A, 2A, 3A, 4A, 5A and 6A) nor 1-phenyl-1H-tetrazole-5-thiol (D) inhibited HLE |  |  |
| C=CCNC(=O)Sc1nnnn1-c1ccccc1 [Compound 2E, N-allyl, 1-phenyl-1H-tetrazole-5-thiocarbamate] |  | 61000 | times more potent than PC1 (Human Leucocyte Elastase): 2 times |
| CC(C)N [Compound 3A, isopropyl amine] | None of the corresponding amines (1A, 2A, 3A, 4A, 5A and 6A) nor 1-phenyl-1H-tetrazole-5-thiol (D) inhibited HLE |  |  |
| CC(C)NC(=O)Sc1nnnn1-c1ccccc1 [Compound 3E, N-isopropyl, 1-phenyl-1H-tetrazole-5-thiocarbamate] |  | 3300 | times more active than 4E (Human Leucocyte Elastase; compared with (4E), kobs/I): 10 times |
| Nc1ccccc1 [Compound 4A] | None of the corresponding amines (1A, 2A, 3A, 4A, 5A and 6A) nor 1-phenyl-1H-tetrazole-5-thiol (D) inhibited HLE |  |  |
| O=C(Nc1ccccc1)Sc1nnnn1-c1ccccc1 [Compound 4E, N-phenyl, 1-phenyl-1H-tetrazole-5-thiocarbamate] |  | 190 |  |
| CCCCNCC [Compound 5A, ethyl, butylamine] | None of the corresponding amines (1A, 2A, 3A, 4A, 5A and 6A) nor 1-phenyl-1H-tetrazole-5-thiol (D) inhibited HLE |  |  |
| CCCCN(CC)C(=O)Sc1nnnn1-c1ccccc1 [Compound 5E, N-ethyl-N-butyl, 1-phenyl-1H-tetrazole-5-thiocarbamate] |  | 180 |  |
| CC(C)NC(C)C [Compound 6A] | None of the corresponding amines (1A, 2A, 3A, 4A, 5A and 6A) nor 1-phenyl-1H-tetrazole-5-thiol (D) inhibited HLE |  |  |
| CC(C)N(C(=O)Sc1nnnn1-c1ccccc1)C(C)C [Compound 6E, N, N-diisopropyl, 1-phenyl-1H-tetrazole-5-thiocarbamate] | no inhibitory activity |  | kobs/I (class symbol) (Human Leucocyte Elastase; [2]): N.I. |
| Sc1nnnn1-c1ccccc1 [D, 1-phenyl-1H-tetrazole-5-thiol] | None of the corresponding amines (1A, 2A, 3A, 4A, 5A and 6A) nor 1-phenyl-1H-tetrazole-5-thiol (D) inhibited HLE |  |  |
